{"source": "patent US9393288B2", "about": "“Methods of treating diseases associated with PPARγ” (The University of Vermont and State Agricultural College, priority 2012, dated 2016)", "system": "MMP-2", "experiment": "MMP-2 mRNA expression (qPCR) in brain cortex and PA, SHR", "format": "in vivo, rat", "details": "relaxin-treated SHR", "procedure": "After dissecting PA and MCA for isolated vessel experiments, the remaining MCA, PA, and brain cortex from the MCA territory of 4-6 rats were collected and stored at −80° C. in RNase inhibitor (1 unit/μl, RiboLock, Fermentas, Glen Burnie, Md., USA) to determine mRNA expression levels of target genes using real-time qPCR methods. Target genes were assessed using Assays on Demand from Applied Biosystems. […] All primers were designed across an exon-exon junction to avoid detecting genomic DNA, so no DNase treatment was required. Housekeeping gene β-actin was used in all qPCR experiments as a control. […]\nTo investigate the mechanisms by which relaxin causes selectively remodeling of PA, mRNA expression of VEGF, MMP-2, and MMP-9 were compared between MCA, PA, brain cortex. To determine if relaxin activates peroxisome proliferator-activated receptor-gamma (PPARγ), expression levels of PPARγ target genes fatty acid binding protein-4 (FABP4) and plasminogen activator inhibitor-1 (PAI-1) were determined in mesenteric adipose tissue. Expression levels of PPARγ and its target genes PAI-1 and liver X receptors-α (LXR-α) were also determined in brain cortex (Chan, S. L., and Cipolla, M. J. (2012) Determination of PPARgamma activity in adipose tissue and spleen. J Immunoassay Immunochem 33, 314-324)."}
{"substance": "relaxin", "values": [{"measurement": "MMP-2 expression in brain cortex", "result": "increased"}]}
